Experimental data: publication PMC10247784, “Physiological activation of human and mouse bitter taste receptors by bile acids” (Communications Biology, 2023)
Where “and” joins values, the source holds several entries; their conditions need not be identical. Equal entries are not always repeated.

Target: T1, human TAS2R14 (Homo sapiens, UniProt Q9NYV8)
T1 construct: expressed in transfected cells; host or cells: HEK293T-Gα16gust44
T1 sequence (Q9NYV8 1-317): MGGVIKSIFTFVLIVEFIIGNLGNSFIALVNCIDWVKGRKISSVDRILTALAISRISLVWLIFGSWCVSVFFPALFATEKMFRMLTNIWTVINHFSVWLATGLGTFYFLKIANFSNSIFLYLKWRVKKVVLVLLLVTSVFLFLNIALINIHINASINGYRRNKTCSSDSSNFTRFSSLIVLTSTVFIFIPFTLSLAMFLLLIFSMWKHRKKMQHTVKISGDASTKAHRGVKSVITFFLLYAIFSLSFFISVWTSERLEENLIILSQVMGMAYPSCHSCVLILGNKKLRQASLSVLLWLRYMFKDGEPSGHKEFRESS
Assay: Calcium imaging assay (FLIPR), HEK293T-Gα16gust44 cells transfected with human TAS2R14
Type: cell-based
Conditions: for RLU: TAS2R14 trace
Protocol: This set of bile acids was chosen because of their commercial availability in high purities, their diversity within the class of bile acids and their previous detection and quantitation in human blood. Stock solutions were prepared in DMSO.
As basal growth medium for the HEK293T-Gα16gust44 cell line[17],[59] served Dulbecco’s modified eagle medium (DMEM) (Thermo Fisher Scientific, Darmstadt, Germany) supplemented with 10 % fetal bovine serum (Sigma-Aldrich, Steinheim, Germany), 2 mM L-glutamine (Sigma-Aldrich, Steinheim, Germany), 100 units/ml penicillin (Sigma Aldrich, Steinheim, Germany) and 100 µg/ml streptomycin (Sigma Aldrich, Steinheim, Germany). Growth conditions were 37 °C, 5 % CO2 and saturated air-humidity[60].
HEK293T-Gα16gust44 cells were seeded on poly-D-lysine (10 µg/ml) coated 96-well plates to reach a confluence of 40-60 % the next day. For transient transfection 150 ng of plasmid DNA containing the receptor of interest and 0.3 µl lipofectamine 2000 (Thermo Fisher Scientific, Darmstadt, Germany) per well were used and transfection took place according to the manual of lipofectamine 2000. […] The empty vector DNA (mock) was transfected as negative control[14],[41].
Cells were loaded using the calcium-sensitive fluorescent dye Fluo-4-AM (Abcam, Cambridge, Great Britain) in the presence of 2.5 mM probenecid (Sigma-Aldrich, Steinheim, Germany) the day after transfection[13],[41]. 1 h after loading, cells were washed with C1 buffer using a BioTek Cell Washer, incubated in the dark for half an hour and washed again. For automated agonist application and measurement of fluorescence changes, a FLIPR^TETRA device (Molecular Devices, San José, United States) was used. Viability of cells was tested by application of 100 nM Somatostatin 14 (Bachem, Bubendorf, Switzerland)[42].
Measured data were negative control corrected by subtracting the signal of the mock-transfected cells and exported to Microsoft Excel using the FLIPR software ScreenWorks 4.2. In Microsoft Excel software, standardization of maximum fluorescence intensities to the basal fluorescence and normalization to the buffer-only control was done to calculate the relative fluorescence changes (ΔF/F).
Initial screening experiments performed in duplicate wells were confirmed by at least one replication and representative traces were selected for display. All dose-response relationships were determined by three independent experiments (biological replicates) performed in duplicates (technical replicates). Threshold concentrations, defined as lowest substance concentrations leading to statistically significant elevated fluorescence changes in receptor-transfected cells compared with empty vector-transfected cells, were determined using SigmaPlot with Student’s t-test to evaluate statistical significance (p < 0.01).

Efficacy = maximal amplitude (ΔF/F) (TAS2R14, bile acids, mean): 0.2451
Efficacy (maximal amplitude ΔF/F), individual data points (TAS2R14, bile acids, single replicates, listed as GCA): 0.2248 and 0.2913 and 0.2191
Δ F/F (TAS2R14, conc. 0,01 mM): 0.002092
Δ F/F (TAS2R14, conc. 0,1 mM): 0.02639
Δ F/F (TAS2R14, conc. 0,03 mM): 0.01392
Δ F/F (TAS2R14, conc. 0,3 mM): 0.06546
Δ F/F (TAS2R14, conc. 0,001 mM): 0.007446
Δ F/F (TAS2R14, conc. 1 mM): 0.2451
Δ F/F (TAS2R14, conc. 0,003 mM): 0.001619
RLU (Time (s) 0): 0 RLU
RLU (Time (s) 2 (Taurocholic Acid 2.016)): -6.072 RLU
RLU (Time (s) 4 (Taurocholic Acid 4.016)): -9.1 RLU
RLU (Time (s) 6 (Taurocholic Acid 6.016)): -27.0469 RLU
RLU (Time (s) 8 (Taurocholic Acid 8.016)): -30.0405 RLU
RLU (Time (s) 12 (Taurocholic Acid 12.016)): -37.9898 RLU
RLU (Time (s) 14 (Taurocholic Acid 14.016)): -36.9901 RLU
RLU (Time (s) 16 (Taurocholic Acid 16.016)): -51.9041 RLU
RLU (Time (s) 18 (Taurocholic Acid 18.016)): -34 RLU
RLU (Time (s) 18.797 (Chenodeoxycholic Acid 18.765)): -73.9735 RLU
RLU (Time (s) 20.797 (Chenodeoxycholic Acid 20.781)): -100.333 RLU
RLU (Time (s) 22.797 (Chenodeoxycholic Acid 22.781)): -58.0996 RLU
RLU (Time (s) 24.797 (Chenodeoxycholic Acid 24.781)): -11.7946 RLU
RLU (Time (s) 26.797 (Chenodeoxycholic Acid 26.781)): -4.829 RLU
RLU (Time (s) 28.797 (Chenodeoxycholic Acid 28.781)): -12.95 RLU
RLU (Time (s) 30.797 (Chenodeoxycholic Acid 30.781)): 25.2324 RLU
RLU (Time (s) 32.797 (Chenodeoxycholic Acid 32.781)): 58.2752 RLU
RLU (Time (s) 34.797 (Chenodeoxycholic Acid 34.781)): 56.7501 RLU
RLU (Time (s) 36.797 (Chenodeoxycholic Acid 36.781)): 94.7938 RLU
RLU (Time (s) 38.797 (Chenodeoxycholic Acid 38.781)): 109.443 RLU
RLU (Time (s) 40.797 (Chenodeoxycholic Acid 40.781)): 134.729 RLU
RLU (Time (s) 42.797 (Chenodeoxycholic Acid 42.781)): 165.138 RLU
RLU (Time (s) 44.797 (Chenodeoxycholic Acid 44.781)): 223.768 RLU
RLU (Time (s) 46.797 (Chenodeoxycholic Acid 46.781)): 253.169 RLU
RLU (Time (s) 48.797 (Chenodeoxycholic Acid 48.781)): 284.606 RLU
RLU (Time (s) 50.797 (Chenodeoxycholic Acid 50.781)): 322.537 RLU
RLU (Time (s) 52.797 (Chenodeoxycholic Acid 52.781)): 365.455 RLU
RLU (Time (s) 54.797 (Chenodeoxycholic Acid 54.781)): 404.11 RLU
RLU (Time (s) 56.797 (Chenodeoxycholic Acid 56.781)): 424.679 RLU
RLU (Time (s) 58.797 (Chenodeoxycholic Acid 58.781)): 448.405 RLU
RLU (Time (s) 60.797 (Chenodeoxycholic Acid 60.781)): 513.015 RLU
RLU (Time (s) 62.797 (Chenodeoxycholic Acid 62.781)): 520.328 RLU
RLU (Time (s) 64.797 (Chenodeoxycholic Acid 64.781)): 518.587 RLU
RLU (Time (s) 66.797 (Chenodeoxycholic Acid 66.781)): 566.626 RLU
RLU (Time (s) 68.797 (Chenodeoxycholic Acid 68.781)): 571.358 RLU
RLU (Time (s) 70.797 (Chenodeoxycholic Acid 70.781)): 583.853 RLU
RLU (Time (s) 72.797 (Chenodeoxycholic Acid 72.781)): 622.789 RLU
RLU (Time (s) 74.797 (Chenodeoxycholic Acid 74.781)): 701.49 RLU
RLU (Time (s) 76.797 (Chenodeoxycholic Acid 76.781)): 688.581 RLU
RLU (Time (s) 78.797 (Chenodeoxycholic Acid 78.781)): 706.104 RLU
RLU (Time (s) 80.797 (Chenodeoxycholic Acid 80.781)): 737.493 RLU
RLU (Time (s) 82.797 (Chenodeoxycholic Acid 82.781)): 736.745 RLU
RLU (Time (s) 84.797 (Chenodeoxycholic Acid 84.781)): 766.635 RLU
RLU (Time (s) 86.797 (Chenodeoxycholic Acid 86.781)): 784.026 RLU
RLU (Time (s) 88.797 (Chenodeoxycholic Acid 88.781)): 835.93 RLU
RLU (Time (s) 90.797 (Chenodeoxycholic Acid 90.781)): 879.758 RLU
RLU (Time (s) 92.797 (Chenodeoxycholic Acid 92.781)): 905.014 RLU
RLU (Time (s) 94.797 (Chenodeoxycholic Acid 94.781)): 871.313 RLU
RLU (Time (s) 96.797 (Chenodeoxycholic Acid 96.781)): 875.012 RLU
RLU (Time (s) 98.797 (Chenodeoxycholic Acid 98.781)): 900.527 RLU
RLU (Time (s) 100.797 (Chenodeoxycholic Acid 100.781)): 907.622 RLU
RLU (Time (s) 102.797 (Chenodeoxycholic Acid 102.781)): 872.83 RLU
RLU (Time (s) 104.797 (Chenodeoxycholic Acid 104.781)): 919.127 RLU
RLU (Time (s) 106.797 (Chenodeoxycholic Acid 106.781)): 885.988 RLU
RLU (Time (s) 108.797 (Chenodeoxycholic Acid 108.781)): 899.974 RLU
RLU (Time (s) 110.797 (Chenodeoxycholic Acid 110.781)): 929.16 RLU
RLU (Time (s) 112.797 (Chenodeoxycholic Acid 112.781)): 924.683 RLU
RLU (Time (s) 114.797 (Chenodeoxycholic Acid 114.781)): 936.987 RLU
RLU (Time (s) 116.797 (Chenodeoxycholic Acid 116.781)): 927.195 RLU
RLU (Time (s) 118.797 (Chenodeoxycholic Acid 118.781)): 907.689 RLU
RLU (Time (s) 120.797 (Chenodeoxycholic Acid 120.781)): 904.35 RLU
RLU (Time (s) 122.797 (Chenodeoxycholic Acid 122.781)): 945.812 RLU
RLU (Time (s) 124.797 (Chenodeoxycholic Acid 124.781)): 947.759 RLU
RLU (Time (s) 126.797 (Chenodeoxycholic Acid 126.781)): 937.139 RLU
RLU (Time (s) 128.797 (Chenodeoxycholic Acid 128.781)): 931.219 RLU
RLU (Time (s) 130.797 (Chenodeoxycholic Acid 130.781)): 907.598 RLU
RLU (Time (s) 132.797 (Chenodeoxycholic Acid 132.781)): 937.794 RLU
RLU (Time (s) 134.797 (Chenodeoxycholic Acid 134.781)): 944.802 RLU
RLU (Time (s) 136.797 (Chenodeoxycholic Acid 136.781)): 914.908 RLU
RLU (Time (s) 137.562 (Taurocholic Acid 137.563, Chenodeoxycholic Acid 137.546)): 923.636 RLU
RLU (Time (s) 143.578 (Taurocholic Acid 143.563, Chenodeoxycholic Acid 143.546)): 874.438 RLU
RLU (Time (s) 149.578 (Taurocholic Acid 149.563, Chenodeoxycholic Acid 149.546)): 827.247 RLU
RLU (Time (s) 155.578 (Taurocholic Acid 155.563, Chenodeoxycholic Acid 155.546)): 796.558 RLU
RLU (Time (s) 161.578 (Taurocholic Acid 161.563, Chenodeoxycholic Acid 161.546)): 810.447 RLU
RLU (Time (s) 167.578 (Taurocholic Acid 167.563, Chenodeoxycholic Acid 167.546)): 731.625 RLU
RLU (Time (s) 173.578 (Taurocholic Acid 173.563, Chenodeoxycholic Acid 173.546)): 735.471 RLU
RLU (Time (s) 179.578 (Taurocholic Acid 179.563, Chenodeoxycholic Acid 179.546)): 706.541 RLU
RLU (Time (s) 191.578 (Taurocholic Acid 191.563, Chenodeoxycholic Acid 191.546)): 666.973 RLU
RLU (Time (s) 197.578 (Taurocholic Acid 197.563, Chenodeoxycholic Acid 197.546)): 650.688 RLU
RLU (Time (s) 209.578 (Taurocholic Acid 209.563, Chenodeoxycholic Acid 209.546)): 612.527 RLU
RLU (Time (s) 221.578 (Taurocholic Acid 221.563, Chenodeoxycholic Acid 221.546)): 516.97 RLU
RLU (Time (s) 233.578 (Taurocholic Acid 233.563, Chenodeoxycholic Acid 233.546)): 445.674 RLU
RLU (Time (s) 239.578 (Taurocholic Acid 239.563, Chenodeoxycholic Acid 239.546)): 433.467 RLU
RLU (Time (s) 245.578 (Taurocholic Acid 245.563, Chenodeoxycholic Acid 245.546)): 428.616 RLU
RLU (Time (s) 293.578 (Taurocholic Acid 293.563, Chenodeoxycholic Acid 293.546)): 228.532 RLU
RLU (Time (s) 299.578 (Taurocholic Acid 299.563, Chenodeoxycholic Acid 299.546)): 222.955 RLU
RLU (Time (s) 305.578 (Taurocholic Acid 305.563, Chenodeoxycholic Acid 305.546)): 237.423 RLU
RLU (Time (s) 311.578 (Taurocholic Acid 311.563, Chenodeoxycholic Acid 311.546)): 201.505 RLU
RLU (Time (s) 317.578 (Taurocholic Acid 317.563, Chenodeoxycholic Acid 317.546)): 204.947 RLU
RLU (Time (s) 323.578 (Taurocholic Acid 323.563, Chenodeoxycholic Acid 323.546)): 189.257 RLU
RLU (Time (s) 329.578 (Taurocholic Acid 329.563, Chenodeoxycholic Acid 329.546)): 164.774 RLU
RLU (Time (s) 335.578 (Taurocholic Acid 335.563, Chenodeoxycholic Acid 335.546)): 171.566 RLU
RLU (Time (s) 341.578 (Taurocholic Acid 341.563, Chenodeoxycholic Acid 341.546)): 143.607 RLU
RLU (Time (s) 347.578 (Taurocholic Acid 347.563, Chenodeoxycholic Acid 347.546)): 131.554 RLU
RLU (Time (s) 353.578 (Taurocholic Acid 353.563, Chenodeoxycholic Acid 353.546)): 173.027 RLU
RLU (Time (s) 359.578 (Taurocholic Acid 359.563, Chenodeoxycholic Acid 359.546)): 156.135 RLU
Activation threshold concentration TAS2R14 (lowest concentration with significantly increased fluorescence vs empty vector (p < 0.01)): 100 µM
SMILES: C[C@H](CCC(=O)NCC(=O)O)[C@H]1CC[C@H]2[C@@H]3[C@H](O)C[C@@H]4C[C@H](O)CC[C@]4(C)[C@H]3C[C@H](O)[C@]12C [Glycocholic Acid, glycocholic acid]
